{"source": "patent US8124361B2", "about": "“Methods of screening for sweet taste modulators” (Givaudan SA, priority 2006, dated 2012)", "key": {"hCaSR": {"molecular_target": "T1, hCaSR (Homo sapiens, UniProt P41180)", "T1 construct": "full length cDNAs encoding the human CaSR (commercially available from Origene Inc., USA); host or cells: HEK293T cells stably expressing Galpha16gust44", "T1 sequence (P41180 20-1078)": "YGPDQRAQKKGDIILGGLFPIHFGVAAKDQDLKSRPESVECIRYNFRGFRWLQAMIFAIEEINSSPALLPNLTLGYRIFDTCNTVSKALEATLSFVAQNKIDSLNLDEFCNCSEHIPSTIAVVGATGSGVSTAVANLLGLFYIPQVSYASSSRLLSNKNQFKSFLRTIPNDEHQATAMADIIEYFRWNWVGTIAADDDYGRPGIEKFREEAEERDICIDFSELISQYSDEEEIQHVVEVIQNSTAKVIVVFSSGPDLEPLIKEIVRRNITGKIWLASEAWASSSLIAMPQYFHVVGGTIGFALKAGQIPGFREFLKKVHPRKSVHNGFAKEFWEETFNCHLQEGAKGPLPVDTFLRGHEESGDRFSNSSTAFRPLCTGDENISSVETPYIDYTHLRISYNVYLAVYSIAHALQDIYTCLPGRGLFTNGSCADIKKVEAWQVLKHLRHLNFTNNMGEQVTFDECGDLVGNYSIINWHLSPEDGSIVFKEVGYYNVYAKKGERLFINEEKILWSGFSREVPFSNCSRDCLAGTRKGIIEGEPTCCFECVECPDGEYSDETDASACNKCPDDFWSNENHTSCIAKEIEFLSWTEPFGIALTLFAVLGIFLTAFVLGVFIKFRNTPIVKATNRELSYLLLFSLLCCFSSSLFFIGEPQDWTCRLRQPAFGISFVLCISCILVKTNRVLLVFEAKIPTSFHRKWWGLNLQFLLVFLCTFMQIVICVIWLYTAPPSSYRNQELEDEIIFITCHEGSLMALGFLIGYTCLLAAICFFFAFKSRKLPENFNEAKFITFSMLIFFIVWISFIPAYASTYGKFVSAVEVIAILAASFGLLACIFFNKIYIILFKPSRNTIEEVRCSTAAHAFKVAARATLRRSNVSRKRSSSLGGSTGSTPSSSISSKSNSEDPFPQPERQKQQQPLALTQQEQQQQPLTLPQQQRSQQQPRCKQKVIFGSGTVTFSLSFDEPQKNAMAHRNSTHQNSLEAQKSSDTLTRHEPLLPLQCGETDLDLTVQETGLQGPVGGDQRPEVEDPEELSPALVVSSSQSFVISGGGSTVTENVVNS", "assay": "Fluo-4 calcium assay in cells transfected with hCaSR", "format": "cell-based", "settings": "transient transfection; calcium chloride 2 mM, sucralose 0.5 mM, aspartame 0.85 mM, perillartine 50 μM, cinnamonitrile 100 μM, cyclamate 1 mM, NDHC 0.33 mM; six replicates"}, "HEK293T/Gα16gust44 cells": {"tested_on": "HEK293T/Gα16gust44 cells", "assay": "Fluo-4 calcium assay, negative control cells expressing Gα16gust44 only (mock transfected)", "format": "cell-based, human", "settings": "for Neg. control (mock transfection) AVG: calcium chloride 2 mM, sucralose 0.5 mM, aspartame 0.85 mM, perillartine 50 μM, cinnamonitrile 100 μM, cyclamate 1 mM, NDHC 0.33 mM, six replicates"}, "[1]": {"molecular_target": "T2, transmembrane domains of TAS1R (Homo sapiens, UniProt Q7RTX0+Q8TE23, C757R)", "T2 sequence (Q8TE23 20-839)": "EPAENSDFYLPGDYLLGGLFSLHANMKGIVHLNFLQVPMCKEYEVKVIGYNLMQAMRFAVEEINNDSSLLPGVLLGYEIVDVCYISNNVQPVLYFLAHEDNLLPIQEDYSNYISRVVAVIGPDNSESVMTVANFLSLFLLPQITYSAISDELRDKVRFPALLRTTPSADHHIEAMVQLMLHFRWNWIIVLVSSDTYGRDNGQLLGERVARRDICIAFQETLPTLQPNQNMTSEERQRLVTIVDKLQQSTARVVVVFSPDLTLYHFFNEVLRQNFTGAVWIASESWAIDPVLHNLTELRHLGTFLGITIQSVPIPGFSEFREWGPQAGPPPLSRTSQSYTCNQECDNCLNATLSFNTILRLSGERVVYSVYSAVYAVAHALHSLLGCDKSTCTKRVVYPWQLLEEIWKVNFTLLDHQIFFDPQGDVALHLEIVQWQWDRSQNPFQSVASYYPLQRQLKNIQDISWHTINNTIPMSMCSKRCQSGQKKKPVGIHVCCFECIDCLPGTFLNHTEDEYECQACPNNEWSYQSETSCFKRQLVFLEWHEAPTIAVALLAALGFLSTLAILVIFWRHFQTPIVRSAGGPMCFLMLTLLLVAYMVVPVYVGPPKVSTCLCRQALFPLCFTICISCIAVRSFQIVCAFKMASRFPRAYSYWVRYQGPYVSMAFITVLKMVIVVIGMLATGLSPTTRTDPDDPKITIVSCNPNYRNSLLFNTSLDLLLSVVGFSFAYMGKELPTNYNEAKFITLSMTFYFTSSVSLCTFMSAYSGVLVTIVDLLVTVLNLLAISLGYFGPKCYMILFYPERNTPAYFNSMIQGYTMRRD", "T2 sequence (Q7RTX0 21-852 C757R)": "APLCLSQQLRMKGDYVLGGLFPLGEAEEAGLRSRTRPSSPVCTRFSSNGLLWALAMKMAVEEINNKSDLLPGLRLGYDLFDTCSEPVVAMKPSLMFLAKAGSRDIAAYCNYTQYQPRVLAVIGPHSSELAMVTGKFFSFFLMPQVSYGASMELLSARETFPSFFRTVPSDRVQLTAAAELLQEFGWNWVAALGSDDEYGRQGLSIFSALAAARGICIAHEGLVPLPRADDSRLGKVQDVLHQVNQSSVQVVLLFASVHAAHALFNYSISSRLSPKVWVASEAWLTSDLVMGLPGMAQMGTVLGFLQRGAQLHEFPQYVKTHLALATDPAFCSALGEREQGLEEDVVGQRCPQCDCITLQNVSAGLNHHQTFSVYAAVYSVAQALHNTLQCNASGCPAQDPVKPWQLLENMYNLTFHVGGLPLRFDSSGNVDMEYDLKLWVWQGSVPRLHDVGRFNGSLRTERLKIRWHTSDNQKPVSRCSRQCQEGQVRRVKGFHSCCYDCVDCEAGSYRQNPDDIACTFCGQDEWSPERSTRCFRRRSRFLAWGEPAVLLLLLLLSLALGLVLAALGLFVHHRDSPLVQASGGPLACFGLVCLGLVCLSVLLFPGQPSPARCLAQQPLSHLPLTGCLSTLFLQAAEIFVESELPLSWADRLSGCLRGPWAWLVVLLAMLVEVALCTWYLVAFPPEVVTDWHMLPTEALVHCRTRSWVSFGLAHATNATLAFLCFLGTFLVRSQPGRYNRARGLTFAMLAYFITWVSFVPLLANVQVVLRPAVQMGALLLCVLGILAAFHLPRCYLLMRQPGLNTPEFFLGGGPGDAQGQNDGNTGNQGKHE", "assay": "Identification of candidate sweetness enhancers that bind to the transmembrane domains", "format": "binding", "settings": "identified by the applicants as candidate sweetness enhancers"}, "[2]": {"tested_on": "sweet sensitive panelists", "assay": "Forced choice test of sweetness versus sucrose, sensory panel", "format": "in vivo, human", "settings": "1% sucrose, comparison with 60 ppm swingle extract; highest imaginable sweetness rates as 10", "protocol": "A forced choice sensory evaluation of […] extract as a sweetener was performed as described in example 13 (see also for forced choice method, O'Mahony, 1992, J. Sens. Stud., 7:1-47), subject to the following modifications: […]"}, "[3]": {"tested_on": "sweet sensitive panelists", "assay": "Ranking test of sweetness isointensity (R-index), sensory panel", "format": "in vivo, human", "protocol": "(§1) The sensory evaluation was conducted using a ranking method. Samples at ambient temperature were randomly presented in 15 ml blind aliquots (unidentifiable by panelists). Panels consisted of 10 sweet sensitive subjects and samples were presented in 3 replications over 1 session. After tasting each sample, the mouth was rinsed thoroughly with water at ambient temperature prior to tasting the next sample. […] They were asked to rank the samples from low to high with respect to perceived sweet taste.\nas §1, with “taste. […] From ranking-style sensory tests, a matrix of responses (see table X below) is constructed such that each cell contains the number of times a given sample was ranked at a particular location.” for “taste.”\nEssentially, the R-index is a measure of difference between two samples. The R-index has a chance level of detection of 50%. […] The critical value is the statistically relevant value that the derived R-index must deviate from (i.e greater or less than) in order to be considered significant."}, "T1R2-TMD": {"molecular_target": "T3, T1R2-TMD (Homo sapiens, UniProt Q8TE23)", "T3 sequence (Q8TE23 564-839)": "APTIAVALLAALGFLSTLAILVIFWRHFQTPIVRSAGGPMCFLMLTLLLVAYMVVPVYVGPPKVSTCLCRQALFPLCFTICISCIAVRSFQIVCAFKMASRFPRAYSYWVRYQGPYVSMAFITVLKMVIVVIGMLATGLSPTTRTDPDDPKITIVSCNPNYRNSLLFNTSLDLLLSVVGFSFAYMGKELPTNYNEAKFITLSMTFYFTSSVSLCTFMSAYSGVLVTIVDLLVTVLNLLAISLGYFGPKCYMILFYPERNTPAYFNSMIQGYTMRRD"}, "[4]": {"settings": "0.5% sucrose in 1700 ppm cyclamate vs 1700 ppm cyclamate"}, "[5]": {"settings": "0.5% sucrose in 1700 ppm cyclamate vs 1900 ppm cyclamate"}, "[6]": {"settings": "0.5% sucrose in 1700 ppm cyclamate vs 2100 ppm cyclamate"}, "[7]": {"settings": "0.5% sucrose in 1700 ppm cyclamate vs 2300 ppm cyclamate"}, "[8]": {"settings": "0.5% sucrose in 1700 ppm cyclamate vs 2500 ppm cyclamate"}, "[9]": {"settings": "0.5% sucrose in aqueous 600 ppm p-ethoxybenzaldehyde vs 600 ppm p-ethoxybenzaldehyde"}, "[10]": {"settings": "0.5% sucrose in aqueous 600 ppm p-ethoxybenzaldehyde vs 700 ppm p-ethoxybenzaldehyde"}}, "data": [{"compound": "N#CC=Cc1ccccc1", "note": "[cinnamonitrile]", "values": [{"measurement": "hCaSR AVG", "setting": "hCaSR", "value": 197, "unit": "RFU"}, {"measurement": "Neg. control (mock transfection) AVG", "setting": "HEK293T/Gα16gust44 cells", "value": "−998", "unit": "RFU"}, {"measurement": "binding to the transmembrane domains of TAS1R", "setting": "[1]", "value": "bind to the transmembrane domains of TAS1R"}]}, {"compound": "OC[C@H]1O[C@@](CO)(O[C@H]2O[C@H](CO)[C@@H](O)[C@H](O)[C@H]2O)[C@@H](O)[C@@H]1O", "note": "[sucrose, α-D-glucopyranosyl-(1→2)-β-D-fructofaranose]", "values": [{"measurement": "sweetness intensity rating", "setting": "[2]", "value": 0.72}, {"measurement": "cyclamate equivalent in sweetness added", "setting": "[3]; 0.5% sucrose in 1700 ppm cyclamate", "value": 200, "unit": "ppm cyclamate"}, {"measurement": "R-index", "setting": "[3]; [4]", "value": 85, "unit": "%"}, {"measurement": "sucrose sample sweetness", "setting": "[3]; [4]", "value": "sweeter"}, {"measurement": "R-index", "setting": "[3]; [5]", "value": 60, "unit": "%"}, {"measurement": "sucrose sample sweetness", "setting": "[3]; [5]", "value": "isosweet"}, {"measurement": "R-index", "setting": "[3]; [6]", "value": 21, "unit": "%"}, {"measurement": "sucrose sample sweetness", "setting": "[3]; [6]", "value": "less sweet"}, {"measurement": "R-index", "setting": "[3]; [7]", "value": 7, "unit": "%"}, {"measurement": "sucrose sample sweetness", "setting": "[3]; [7]", "value": "less sweet"}, {"measurement": "R-index", "setting": "[3]; [8]", "value": 4, "unit": "%"}, {"measurement": "sucrose sample sweetness", "setting": "[3]; [8]", "value": "less sweet"}, {"measurement": "p-ethoxybenzaldehyde isointensity", "setting": "[3]; 0.5% sucrose in aqueous 600 ppm p-ethoxybenzaldehyde", "value": 700, "unit": "ppm p-ethoxybenzaldehyde"}, {"measurement": "R-index", "setting": "[3]; [9]", "value": 68, "unit": "%"}, {"measurement": "mixture sample sweetness", "setting": "[3]; [9]", "value": "sweeter"}, {"measurement": "R-index", "setting": "[3]; [10]", "value": 59, "unit": "%"}, {"measurement": "mixture sample sweetness", "setting": "[3]; [10]", "value": "isosweet"}, {"measurement": "cyclamate isointensity", "setting": "[3]; 1700 ppm cyclamate+0.5% sucrose", "value": 1900, "unit": "ppm cyclamate"}]}, {"compound": "OC[C@H]1O[C@H](O[C@]2(CCl)O[C@H](CCl)[C@@H](O)[C@@H]2O)[C@H](O)[C@@H](O)[C@H]1Cl", "note": "[Sucralose, 6-dichloro-1,6-dideoxy-β-D-fructo-furanosyl 4-chloro-4-deoxy-α-D-galactopyranoside]", "values": [{"measurement": "hCaSR AVG", "setting": "hCaSR", "value": 22, "unit": "RFU"}, {"measurement": "Neg. control (mock transfection) AVG", "setting": "HEK293T/Gα16gust44 cells", "value": "−186", "unit": "RFU"}]}, {"compound": "C=C(C)[C@@H]1CC=C(/C=N/O)CC1", "note": "[perillartine]", "values": [{"measurement": "AVERAGE fluorescence increase, T1R2-TMD/Gα16gust44", "setting": "T1R2-TMD; 50 μM perillartine", "value": 973.06, "unit": "RFU"}, {"measurement": "increase in fluorescence compared to the signal of the negative control", "setting": "T1R2-TMD; perillartine, many cell clones, vs cells expressing Gα16gust44 but not T1R2-TMD", "value": "greater than 10 times"}, {"measurement": "hCaSR AVG", "setting": "hCaSR", "value": 73, "unit": "RFU"}, {"measurement": "AVERAGE fluorescence increase, Gα16gust44 ONLY (neg. control)", "setting": "HEK293T/Gα16gust44 cells; 50 μM perillartine", "value": 73.78, "unit": "RFU"}, {"measurement": "Neg. control (mock transfection) AVG", "setting": "HEK293T/Gα16gust44 cells", "value": "−379", "unit": "RFU"}, {"measurement": "binding to the transmembrane domains of TAS1R", "setting": "[1]", "value": "bind to the transmembrane domains of TAS1R"}]}, {"compound": "[Ca+2].[Cl-].[Cl-]", "note": "[Calcium, calcium chloride]", "values": [{"measurement": "hCaSR AVG", "setting": "hCaSR", "value": 7610, "unit": "RFU"}, {"measurement": "Neg. control (mock transfection) AVG", "setting": "HEK293T/Gα16gust44 cells", "value": 1570, "unit": "RFU"}]}]}
